From ChEMBL document CHEMBL1201862, “PubChem BioAssay data set” (2004)
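Step 1: Grow cells in 96-well plates. Step 2: Expose to compound for 48 hours at 5 concentrations. Step 3: Interpolate endpoints linearly; if unreached, use highest concentration. The concentration for 50% growth inhibition is given as GI50.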 Calls of active or inactive are those of the source. No stated cut-off is given here; in the data, active = GI50 up to about 1.1 µM and inactive = higher.

Assays:
Assay in all cases: inhibition of tumour cell growth, NCI panel, 48 h
[1] = tested on: SF-539
[2] = tested on: U-251
[3] = tested on: HL-60
[4] = tested on: MDA-N
[5] = tested on: NCI-H226
[6] = tested on: IGROV-1
[7] = tested on: MCF7
[8] = tested on: Hs-578T
[9] = tested on: T47D
[10] = tested on: NCI-H23
[11] = tested on: M14
[12] = tested on: CCRF-CEM
[13] = tested on: HT-29
[14] = tested on: OVCAR-8
[15] = tested on: K562
[16] = tested on: OVCAR-4
[17] = tested on: KM12
[18] = tested on: SR
[19] = tested on: SK-OV-3
[20] = tested on: BT-549
[21] = tested on: 786-0
[22] = tested on: PC-3
[23] = tested on: A498
[24] = tested on: LOX IMVI
[25] = tested on: TK-10
[26] = tested on: NCI-H460
[27] = tested on: MDA-MB-435
[28] = tested on: Malme-3M
[29] = tested on: ACHN
[30] = tested on: HOP-92
[31] = tested on: MDA-MB-231
[32] = tested on: CAKI-1
[33] = tested on: OVCAR-3
[34] = tested on: OVCAR-5
[35] = tested on: SK-MEL-5
[36] = tested on: HCT-15
[37] = tested on: COLO 205
[38] = tested on: EKVX
[39] = tested on: SF-268
[40] = tested on: DU-145
[41] = tested on: SW-620
[42] = tested on: NCI/ADR-RES
[43] = tested on: UO-31
[44] = tested on: SNB-19
[45] = tested on: RXF 393
[46] = tested on: SF-295
[47] = tested on: MOLT-4
[48] = tested on: SK-MEL-2
[49] = tested on: A549
[50] = tested on: SK-MEL-28
[51] = tested on: SNB-75
[52] = tested on: HCT-116
[53] = tested on: RPMI-8226
[54] = tested on: UACC-257
[55] = tested on: HCC 2998
[56] = tested on: UACC-62
[57] = tested on: NCI-H522
[58] = tested on: SN12C
[59] = tested on: HOP-62

SMILES: COc1cc2c(cc1OC)C1=CCC(c3ccccc3)[N+]1(C)CC2 (stereo not drawn)
- GI50 [1]: > 100 µM (inactive)
- GI50 [2]: > 100 µM (inactive)
- GI50 [3]: > 100 µM (inactive)
- GI50 [4]: > 100 µM (inactive)
- GI50 [5]: > 100 µM (inactive)
- GI50 [6]: > 100 µM (inactive)
- GI50 [7]: > 100 µM (inactive)
- GI50 [8]: > 100 µM (inactive)
- GI50 [9]: > 100 µM (inactive)
- GI50 [10]: > 100 µM (inactive)
- GI50 [11]: > 100 µM (inactive)
- GI50 [12]: > 100 µM (inactive)
- GI50 [13]: > 100 µM (inactive)
- GI50 [14]: > 100 µM (inactive)
- GI50 [15]: > 100 µM (inactive)
- GI50 [16]: > 100 µM (inactive)
- GI50 [17]: > 100 µM (inactive)
- GI50 [18]: > 100 µM (inactive)
- GI50 [19]: > 100 µM (inactive)
- GI50 [20]: > 100 µM (inactive)
- GI50 [21]: > 100 µM (inactive)
- GI50 [22]: > 100 µM (inactive)
- GI50 [23]: > 100 µM (inactive)
- GI50 [24]: > 100 µM (inactive)
- GI50 [25]: > 100 µM (inactive)
- GI50 [26]: > 100 µM (inactive)
- GI50 [27]: > 100 µM (inactive)
- GI50 [28]: 56.9 µM (inactive)
- GI50 [29]: > 100 µM (inactive)
- GI50 [30]: > 100 µM (inactive)
- GI50 [31]: > 100 µM (inactive)
- GI50 [32]: > 100 µM (inactive)
- GI50 [33]: > 100 µM (inactive)
- GI50 [34]: > 100 µM (inactive)
- GI50 [35]: 78.5 µM (inactive)
- GI50 [36]: > 100 µM
- GI50 [37]: > 100 µM (inactive)
- GI50 [38]: > 100 µM (inactive)
- GI50 [39]: > 100 µM (inactive)
- GI50 [40]: > 100 µM (inactive)
- GI50 [41]: > 100 µM (inactive)
- GI50 [42]: > 100 µM (inactive)
- GI50 [43]: > 100 µM (inactive)
- GI50 [44]: > 100 µM (inactive)
- GI50 [45]: > 100 µM (inactive)
- GI50 [46]: > 100 µM (inactive)
- GI50 [47]: > 100 µM (inactive)
- GI50 [48]: > 100 µM (inactive)
- GI50 [49]: > 100 µM (inactive)
- GI50 [50]: > 100 µM (inactive)
- GI50 [51]: > 100 µM (inactive)
- GI50 [52]: > 100 µM (inactive)
- GI50 [53]: > 100 µM (inactive)
- GI50 [54]: 33.5 µM (inactive)
- GI50 [55]: > 100 µM (inactive)
- GI50 [56]: > 100 µM (inactive)

SMILES: CC1(C)OC(=O)N(c2ccccc2)C12C=Cc1cccc([N+](=O)[O-])c1O2 (stereo not drawn)
- GI50 [2]: 65.9 µM (inactive)
- GI50 [3]: 17.5 µM (inactive)
- GI50 [4]: 42.5 µM (inactive)
- GI50 [5]: > 100 µM (inactive)
- GI50 [6]: 96.6 µM (inactive)
- GI50 [7]: 79.3 µM (inactive)
- GI50 [8]: 73.6 µM (inactive)
- GI50 [9]: 43.4 µM (inactive)
- GI50 [57]: 36.5 µM (inactive)
- GI50 [10]: 55.3 µM (inactive)
- GI50 [11]: 51.6 µM (inactive)
- GI50 [12]: 37.3 µM (inactive)
- GI50 [58]: > 100 µM (inactive)
- GI50 [13]: 98.9 µM (inactive)
- GI50 [14]: 92.7 µM (inactive)
- GI50 [15]: 35.1 µM (inactive)
- GI50 [16]: 56.2 µM (inactive)
- GI50 [17]: 58.6 µM (inactive)
- GI50 [18]: 9.18 µM (inactive)
- GI50 [19]: 28.2 µM (inactive)
- GI50 [20]: > 100 µM (inactive)
- GI50 [21]: > 100 µM (inactive)
- GI50 [22]: 31 µM (inactive)
- GI50 [23]: 50.2 µM (inactive)
- GI50 [24]: 97.3 µM (inactive)
- GI50 [25]: > 100 µM (inactive)
- GI50 [26]: > 100 µM (inactive)
- GI50 [27]: 33 µM (inactive)
- GI50 [29]: > 100 µM (inactive)
- GI50 [30]: > 100 µM (inactive)
- GI50 [31]: > 100 µM (inactive)
- GI50 [32]: > 100 µM (inactive)
- GI50 [33]: > 100 µM (inactive)
- GI50 [34]: > 100 µM (inactive)
- GI50 [35]: 72.8 µM (inactive)
- GI50 [36]: 90.2 µM
- GI50 [37]: 45.1 µM (inactive)
- GI50 [38]: 60.8 µM (inactive)
- GI50 [39]: > 100 µM (inactive)
- GI50 [40]: > 100 µM (inactive)
- GI50 [41]: > 100 µM (inactive)
- GI50 [42]: 48.2 µM (inactive)
- GI50 [43]: 45.3 µM (inactive)
- GI50 [44]: > 100 µM (inactive)
- GI50 [45]: > 100 µM (inactive)
- GI50 [46]: 55.1 µM (inactive)
- GI50 [47]: 15.1 µM (inactive)
- GI50 [48]: > 100 µM (inactive)
- GI50 [49]: 79.1 µM (inactive)
- GI50 [50]: 90.8 µM (inactive)
- GI50 [51]: 35.6 µM (inactive)
- GI50 [52]: 67 µM (inactive)
- GI50 [59]: > 100 µM (inactive)
- GI50 [53]: 53.3 µM (inactive)
- GI50 [54]: 47.6 µM (inactive)
- GI50 [55]: > 100 µM (inactive)
- GI50 [56]: 80 µM (inactive)
